Measured values as given in patent US12516049B2, “Sulfonylurea ring substituted monocyclic β-lactam antibiotics” (priority 2019, dated 2026).
≈ marks a conversion by molar mass, not a printed value.

Experiments:
Format in all cases: cell-based
[1] = system: Enterobacter cloacae ATCC BAA-1143 (AmpC); test: MIC, micro-liquid dilution (CLSI); settings: ATCCBAA1143, E. cloacae ATCC BAA-1143, Class C (AmpC), 20-24 h, 37° C.
Procedure: (§1) Three strains of Klebsiella pneumonia, ATCC BAA-205 (TEM-1/SHV-1/SHV-12), ATCC BAA-1705 (KPC-2), ATCC BAA-2470 (NDM-1), Enterobacter cloacae ATCC BAA-1143 (AmpC), two strains of Escherichia coli ATCC BAA-2523 (OXA-48), ATCC 25922 were used to determine the minimum inhibitory concentration (MIC) of each of the compounds by micro-liquid dilution method according to the Institute of Clinical and Laboratory Standard (CLSI) requirements. […]. The plate was placed upside down at 37° C. and the MIC value was read after 20-24 h of incubation, and the lowest drug concentration that inhibited the growth of bacteria was set as MIC. Colony-Forming Units (CFU) refer to the total number of bacterial colonies per unit volume.

[2] = system: Escherichia coli ATCC 25922; test: MIC, micro-liquid dilution (CLSI); settings: ATCC25922, E. coli ATCC 25922, 20-24 h, 37° C.
Procedure: as §1

[3] = system: Escherichia coli ATCC BAA-2523 (OXA-48); test: MIC, micro-liquid dilution (CLSI); settings: ATCCBAA2523, E. coli ATCC BAA-2523, Class D (OXA-48), 20-24 h, 37° C., read-out: MIC
Procedure: as §1

[4] = system: Klebsiella pneumonia ATCC BAA-1705 (KPC-2); test: MIC, micro-liquid dilution (CLSI); settings: Klebsiella pneumoniae, ATCCBAA1705; K. pneumonia ATCC BAA-1705, Class A (KPC-2); 20-24 h, 37° C.
Procedure: as §1

[5] = system: Klebsiella pneumonia ATCC BAA-205 (TEM-1/SHV-1/SHV-12); test: MIC, micro-liquid dilution (CLSI); settings: Klebsiella pneumoniae, ATCCBAA205; K. pneumonia ATCC BAA-205, Class A (TEM-1/SHV-1/SHV-12); 20-24 h, 37° C.
Procedure: as §1

[6] = system: Klebsiella pneumonia ATCC BAA-2470 (NDM-1); test: MIC, micro-liquid dilution (CLSI); settings: Klebsiella pneumoniae, ATCCBAA2470; K. pneumonia ATCC BAA-2470, Class B (NDM-1); 20-24 h, 37° C.
Procedure: as §1

E.coli 020028 = test: MIC, two-fold agar dilution, clinical isolate; settings: Escherichia coli, single drug, average of three tests
Procedure: (§2) The minimum inhibitory concentration (MIC) of the compound and combination with β-lactamase (MBLs) inhibitors against clinically isolated carbapenem-resistant enterobacteriaceae was determined by the two-fold agar dilution method to determine the activity of the compound to be tested against strains producing MBLs. Antibiotics and enzyme inhibitors were weighed separately and dissolved in sterile ultrapure water or dimethyl sulfoxide to prepare mother liquor, MHA medium was prepared, pH was adjusted to 7.2-7.4, and it was sterilized at 121° C. for 15 minutes and placed in a 55° C. water bath for heat preservation. The mother liquor was diluted to the concentration to be tested by double dilution method, an inoculum liquid was prepared by direct bacterial suspension method, 1 mL of the prepared bacteria solution was withdrawn and putted into the inoculation tube, and a positioning needle and an inoculation needle were installed. A bacterial multi-point inoculator was started for inoculation. After the bacterial solution was absorbed by the agar, the plate was placed upside down in an incubator at 37° C. for 16-20 hours, and the results were observed. The average of three tests was taken.

E.coli 020031 = test: MIC, two-fold agar dilution, clinical isolate; settings: Escherichia coli, single drug, average of three tests
Procedure: as §2

E.coli 020033 = test: MIC, two-fold agar dilution, clinical isolate; settings: Escherichia coli, single drug, average of three tests
Procedure: as §2

E.coli 115103 = test: MIC, two-fold agar dilution, clinical isolate; settings: Escherichia coli; E.coli 115103; single drug; average of three tests; read-out: MIC
Procedure: as §2

E.coli BAA-2452 = test: MIC, two-fold agar dilution, clinical isolate; settings: Escherichia coli, BAA2452; E.coli BAA-2452; single drug; average of three tests; read-out: MIC
Procedure: as §2

E.coli C1569 = test: MIC, two-fold agar dilution, clinical isolate; settings: Escherichia coli, single drug, average of three tests
Procedure: as §2

E.coli CRE18 = test: MIC, two-fold agar dilution, clinical isolate; settings: Escherichia coli; E.coli CRE18; single drug; average of three tests; read-out: MIC
Procedure: as §2

E.coli CRE21 = test: MIC, two-fold agar dilution, clinical isolate; settings: Escherichia coli; E.coli CRE21; single drug; average of three tests; read-out: MIC
Procedure: as §2

E.coli CRE23 = test: MIC, two-fold agar dilution, clinical isolate; settings: Escherichia coli; E.coli CRE23; single drug; average of three tests; read-out: MIC
Procedure: as §2

E.coli CRE28 = test: MIC, two-fold agar dilution, clinical isolate; settings: Escherichia coli; E.coli CRE28; single drug; average of three tests; read-out: MIC
Procedure: as §2

K.p 090339 = test: MIC, two-fold agar dilution, clinical isolate; settings: K.p 090339; single drug; average of three tests; read-out: MIC
Procedure: as §2

K.p 115004 = test: MIC, two-fold agar dilution, clinical isolate; settings: K.p 115004; single drug; average of three tests; read-out: MIC
Procedure: as §2

K.p 11544 = test: MIC, two-fold agar dilution, clinical isolate; settings: K.p 11544; single drug; average of three tests; read-out: MIC
Procedure: as §2

K.p 13249 = test: MIC, two-fold agar dilution, clinical isolate; settings: K.p 13249; single drug; average of three tests; read-out: MIC
Procedure: as §2

K.p 6777 = test: MIC, two-fold agar dilution, clinical isolate; settings: K.p 6777; single drug; average of three tests; read-out: MIC
Procedure: as §2

K.p BAA-2470 = test: MIC, two-fold agar dilution, clinical isolate; settings: K.p BAA-2470; single drug; average of three tests; read-out: MIC
Procedure: as §2

K.p C904 = test: MIC, two-fold agar dilution, clinical isolate; settings: K.p C904; single drug; average of three tests; read-out: MIC
Procedure: as §2

K.p CRE11 = test: MIC, two-fold agar dilution, clinical isolate; settings: K.p CRE11; single drug; average of three tests; read-out: MIC
Procedure: as §2

K.p CRE12 = test: MIC, two-fold agar dilution, clinical isolate; settings: single drug, average of three tests
Procedure: as §2

K.p CRE16 = test: MIC, two-fold agar dilution, clinical isolate; settings: single drug, average of three tests
Procedure: as §2

K.p HX37 = test: MIC, two-fold agar dilution, clinical isolate; settings: K.p HX37; single drug; average of three tests; read-out: MIC
Procedure: as §2

K.p HX77 = test: MIC, two-fold agar dilution, clinical isolate; settings: single drug, average of three tests
Procedure: as §2

[7] = system: Morganella morganii C1274; test: MIC, two-fold agar dilution, clinical isolate; settings: Morganella morganii C1274; single drug; average of three tests; read-out: MIC
Procedure: as §2

E.coli 115101 = test: MIC, two-fold agar dilution, clinical isolate; settings: Escherichia coli; E.coli 115101; single drug; average of three tests; read-out: MIC
Procedure: as §2, with “Antibiotics and enzyme inhibitors were weighed separately and dissolved in sterile ultrapure water or dimethyl sulfoxide to prepare mother liquor, MHA medium was prepared, pH was adjusted to 7.2-7.4, and it was sterilized at 121° C. for 15 minutes and placed in a 55° C. water bath for heat preservation.” left out

E.coli 115105 = test: MIC, two-fold agar dilution, clinical isolate; settings: Escherichia coli, single drug, average of three tests
Procedure: as §2, with “Antibiotics and enzyme inhibitors were weighed separately and dissolved in sterile ultrapure water or dimethyl sulfoxide to prepare mother liquor, MHA medium was prepared, pH was adjusted to 7.2-7.4, and it was sterilized at 121° C. for 15 minutes and placed in a 55° C. water bath for heat preservation.” left out

K.p HX30 = test: MIC, two-fold agar dilution, clinical isolate; settings: K.p HX30; single drug; average of three tests; read-out: MIC
Procedure: as §2, with “Antibiotics and enzyme inhibitors were weighed separately and dissolved in sterile ultrapure water or dimethyl sulfoxide to prepare mother liquor, MHA medium was prepared, pH was adjusted to 7.2-7.4, and it was sterilized at 121° C. for 15 minutes and placed in a 55° C. water bath for heat preservation.” left out

[8] = system: clinically isolated carbapenem-resistant enterobacteriaceae; settings: single drug; panel of 26 strains of Table 2
Procedure: as §2, with “Antibiotics and enzyme inhibitors were weighed separately and dissolved in sterile ultrapure water or dimethyl sulfoxide to prepare mother liquor, MHA medium was prepared, pH was adjusted to 7.2-7.4, and it was sterilized at 121° C. for 15 minutes and placed in a 55° C. water bath for heat preservation.” left out

Compound | MIC [1] [µg/mL] | MIC [2] [µg/mL] | MIC [3] [µg/mL] | MIC [4] [µg/mL] | MIC [5] [µg/mL] | MIC [6] [µg/mL] | MIC (E.coli 020028) [µg/mL] | MIC (E.coli 020031) [µg/mL] | MIC (E.coli 020033) [µg/mL] | MIC (E.coli 115103) [µg/mL] | MIC (E.coli BAA-2452) [µg/mL] | MIC (E.coli C1569) [µg/mL] | MIC (E.coli CRE18) [µg/mL] | MIC (E.coli CRE21) [µg/mL] | MIC (E.coli CRE23) [µg/mL] | MIC (E.coli CRE28) [µg/mL] | MIC (K.p 090339) [µg/mL] | MIC (K.p 115004) [µg/mL] | MIC (K.p 11544) [µg/mL] | MIC (K.p 13249) [µg/mL] | further results
N=C(N)NC[C@@H]1CN(C[C@@H]2[C@H](NC(=O)/C(=N\OC3(C(=O)O)CC3)c3csc(N)n3)C(=O)N2S(=O)(=O)O)S(=O)(=O)N1 [Compound 5] | 1 (≈ 1.6 µM) | 0.5 (≈ 0.8 µM) | 0.25 (≈ 0.4 µM) | 1 (≈ 1.6 µM) | 1 (≈ 1.6 µM) | 0.5 (≈ 0.8 µM) | – | – | – | – | – | – | – | – | – | – | – | – | – | – | –
CC(=O)NC[C@@H]1CN(C[C@@H]2[C@H](NC(=O)/C(=N\OC3(C(=O)O)CC3)c3csc(N)n3)C(=O)N2S(=O)(=O)O)S(=O)(=O)N1 [Compound 6] | 1 (≈ 1.6 µM) | 4 (≈ 6.4 µM) | 0.25 (≈ 0.4 µM) | 8 (≈ 12.8 µM) | 2 (≈ 3.2 µM) | 1 (≈ 1.6 µM) | – | – | – | – | – | – | – | – | – | – | – | – | – | – | –
Nc1nc(/C(=N/OC2(C(=O)O)CC2)C(=O)N[C@@H]2C(=O)N(S(=O)(=O)O)[C@@H]2CN2CCOC2=O)cs1 [LYS 228] | – | – | – | – | – | – | 0.125 | 4 | 8 | 8 | 0.5 | 4 | 4 | 4 | 2 | 4 | 0.25 | 0.25 | 0.125 | 0.125 | MIC (K.p 6777): 1 µg/mL; MIC (K.p BAA-2470): 0.25 µg/mL; MIC (K.p C904): 0.125 µg/mL; MIC (K.p CRE11): 0.125 µg/mL; MIC (K.p CRE12): 0.125 µg/mL; MIC (K.p CRE16): 0.06 µg/mL; MIC (K.p HX37): 0.5 µg/mL; MIC (K.p HX77): 0.03 µg/mL; MIC [7]: 0.25 µg/mL; MIC (E.coli 115101): 4 µg/mL; MIC (E.coli 115105): 4 µg/mL; MIC (K.p HX30): 2 µg/mL; MIC50 [8]: 0.5 µg/mL; MIC90 [8]: 4 µg/mL
C[C@@H](O)[C@H]1C(=O)N2C(C(=O)O)=C(S[C@@H]3CN[C@H](C(=O)N(C)C)C3)[C@H](C)[C@H]12 [Meropenem] | – | – | – | – | – | – | 16 | 32 | 32 | 16 | 16 | 16 | 32 | 64 | 32 | 32 | 16 | 16 | 16 | 32 | MIC (K.p 6777): 8 µg/mL; MIC (K.p BAA-2470): 32 µg/mL; MIC (K.p C904): 16 µg/mL; MIC (K.p CRE11): 32 µg/mL; MIC (K.p CRE12): 16 µg/mL; MIC (K.p CRE16): 8 µg/mL; MIC (K.p HX37): 32 µg/mL; MIC (K.p HX77): 16 µg/mL; MIC [7]: 2 µg/mL; MIC50 [8]: 16 µg/mL
